Data published in ChEMBL document CHEMBL1125599, “Cholinergic activity of acetylenic imidazoles and related compounds” (J Med Chem, 1991).

Legend:
Mus musculus [1] = experiment: ED50 value determined as oxotremorine antagonism by measuring salivation in mice (in vivo); type: functional
Mus musculus [2] = experiment: ED50 value determined as oxotremorine antagonism by measuring tremors in mice (in vivo); type: functional
Mus musculus [3] = experiment: ED50 value as cholinergic agonism by measuring lacrimation in mice (in vivo); type: functional
Mus musculus [4] = experiment: ED50 value as cholinergic agonist by measuring salivation in mice (in vivo); type: functional
Mus musculus [5] = experiment: ED50 value as cholinergic agonist by measuring tremors in mice (in vivo); type: functional
Mus musculus [6] = experiment: ED50 value determined as oxotremorine antagonism by measuring lacrimation in mice (in vivo); type: functional
[7] = target: Muscarinic acetylcholine receptor; experiment: Binding affinity to muscarinic acetylcholine receptor was determined in presence of [3H]OXO-M radioligand (in vitro); type: protein assay
[8] = target: Muscarinic acetylcholine receptor; experiment: Binding affinity to muscarinic acetylcholine receptor was determined in presence of [3H]QNB radioligand (in vitro); type: protein assay
[9] = target: Muscarinic acetylcholine receptor (Rattus norvegicus) (UniProt P08482+P08483+P08485+P08911+P10980); experiment: Ratio of Ki value for QNB to that of Ki value for Oxo-M.; type: protein assay

| Structure (SMILES) | ED50 (Mus musculus [1]) [mg/kg] | ED50 (Mus musculus [2]) [mg/kg] | ED50 (Mus musculus [3]) [mg/kg] | ED50 (Mus musculus [4]) [mg/kg] | ED50 (Mus musculus [5]) [mg/kg] | ED50 (Mus musculus [6]) [mg/kg] | Ki [7] [nM] | Ki [8] [nM] | Ki ratio [9] |
| --- | --- | --- | --- | --- | --- | --- | --- | --- | --- |
| COC(=O)N(C)C(C)C#CCn1cncc1C (stereo not given) | 6.6 | > 100 | > 100 | > 100 | 97 | 3.7 | 9.5 | 97 | 10 |
| COC(=O)NCC#CCn1cncc1C | 80 | > 100 | > 100 | > 100 | > 100 | 66 | 191 | 6825 | 36 |
| CCOC(=O)N(C)CC#CCn1cncc1C | 66 | 30 | > 100 | > 100 | 97 | 66 | 156 | 568 | 3.6 |
| Cc1cncn1CC#CCN1CCOC1=O | 80 | > 100 | > 100 | > 100 | 30 | 37 | 18 | 151 | 8.4 |
| CCOC(=O)N(C)C(C)C#CCn1cncc1C (stereo not given) | 17.3 | 30 | > 100 | > 100 | > 100 | 9.7 | 156 | 568 | 3.6 |
| CC1CCC(=O)N1CC#CCN(C)C (stereo not given) | > 100 | > 100 | 3.7 | 3 | 1.7 | > 100 | 7.1 | 690 | 97 |
| COC(=O)N(C)C(C)C#CCN(C)C (stereo not given) | > 100 | > 100 | 17.3 | 17.3 | 11.8 | > 100 | 16 | > 10000 |  |
| CC(C#CCN(C)C)N1CCCC1=O (stereo not given) | > 100 | > 100 | 6.6 | 6.6 | 100 | > 100 | 26.4 | 1702 | 65 |
| O=C1NCCN1CC#CCN1CCCC1 | > 3 | > 3 | > 3 | > 3 |  | > 3 | 13 | 800 | 62 |
| O=C1CCCN1CC#CCn1cncn1 | > 100 | > 100 | > 100 | > 100 | > 100 | > 100 | > 10000 | > 10000 |  |
| Cc1c[n+](C)cn1CC#CCN1CCCC1=O.[I-] | 25 | > 100 | > 100 | > 100 | 30 | 9.7 | 53 | 303 | 5.7 |
| Cc1nccn1CC#CCN1CCCC1=O | > 100 | > 100 |  | 0.37 | 0.25 | 0.45 | 0.3 | 3.8 | 13 |
| CC(C#CCN1CCCC1)N1CCCC1=O (stereo not given) | 0.55 | 3 | > 30 | > 30 | > 30 | 0.55 | 1.1 | 14 | 13 |
| Cc1cncn1CC#CCN1CCN(C)C1=O | > 100 | > 100 |  | 14 | 2.5 | 14 | 8.6 | 381 | 44 |
| O=C1OCCN1CC#CCn1ccnc1 | > 100 | > 100 | 3 | 2 | 3 | > 100 | 5.7 | 929 | 164 |
| Cc1cncn1CC#CCN1CCCC1=O | > 100 | > 100 | > 100 | > 100 | 2.5 | 0.8 | 3.2 | 64 | 20 |
| CC(=O)N(C)CC#CCN1CCCC1 | > 10 | > 10 | 0.55 | 0.55 | 0.3 | > 10 | 0.92 | 260 | 283 |
| COC(=O)N(C)CC#CCn1cncc1C | 5.4 | > 100 | > 100 |  | 4.5 | 3 | 36 | 1001 | 28 |
| CCOC(=O)N(C)C(C)C#CCn1ccnc1 (stereo not given) | 66 | > 100 | > 100 | > 100 | > 100 | 54 | 273 | > 10000 |  |
| Cc1cn(CC#CCN2CCCC2=O)cn1 | 37 | > 100 | > 100 | > 100 |  | 14.2 | 10.3 | 377 | 37 |
| CC(=O)N(C)CC#CCn1cncc1C | > 100 | > 100 |  | 45 | 5.4 | 6.6 | 3.61 | 172 | 48 |
| CC(C#CCn1ccnc1)N1CCN(C)C1=O (stereo not given) | 21 | > 100 | > 100 |  | 97 | 21 | 120 | 4009 | 33 |
| CN(C)CC#CCN(C)C(=O)N(C)C | > 100 | > 100 | 6.6 | 8 | 2 | > 100 | 16 | > 10000 |  |
| Cc1cncn1CC#CCn1ccn(C)c1=O | 22 | > 100 | > 100 |  | 100 | 8 | 39 | 614 | 16 |
| O=C1CCCN1CC#CCn1cccn1 | > 100 | > 100 | > 100 | > 100 | > 100 | > 100 | > 10000 | > 10000 |  |
| CC(=O)N(C)CC#CCN(C)C | > 10 | > 10 | 1.73 | 1.73 | 0.97 | > 10 | 4.2 | > 10000 |  |
